In patent publication US6903132B2, “Non-peptide GnRH agents, pharmaceutical compositions and methods for their use” (Agouron Pharmaceuticals, Inc., priority 2002, dated 2005) one finds Ki data, which are given here for two molecules.

What all share (test): Radioligand binding assay: inhibition of binding of 125I-GnRH-A to GnRH receptors (membranes)
One experiment addresses T1, human GnRH receptors (Homo sapiens, UniProt P30968).
T1 construct: expressed in transfected cells; host or cells: HEK 293
T1 sequence (P30968 1-328): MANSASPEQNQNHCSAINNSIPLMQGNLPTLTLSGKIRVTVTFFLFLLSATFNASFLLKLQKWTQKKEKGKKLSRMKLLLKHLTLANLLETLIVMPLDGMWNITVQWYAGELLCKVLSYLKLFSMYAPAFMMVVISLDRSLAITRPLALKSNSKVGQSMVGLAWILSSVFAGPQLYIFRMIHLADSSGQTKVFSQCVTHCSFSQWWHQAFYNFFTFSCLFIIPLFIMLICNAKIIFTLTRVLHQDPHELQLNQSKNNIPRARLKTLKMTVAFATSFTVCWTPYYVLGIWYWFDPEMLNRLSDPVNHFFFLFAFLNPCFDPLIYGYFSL
The settings on record: Human GnRH receptor; competition with 125I-GnRH-A; Ki calculated from IC50 (Cheng et al.). In short, it runs like this:
(§1)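 Membranes from HEK 293 expressing mouse or human receptor, or rat pituitaries, incubated 1 h at RT with ~0.04–0.06 nM ¹²⁵I-[des-Gly¹⁰,D-Ala⁶]GnRH ethylamide and competitor (0.1–10,000 nM) in HEPES pH 7.4 with MgCl2, EDTA, BSA. Filtration onto PEI-soaked GF/C filters, scintillation counting; Ki from IC50 by Cheng–Prusoff.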

Another experiment has as its target T2, mouse GnRH receptors (Mus musculus, UniProt Q01776).
T2 construct: expressed in transfected cells; host or cells: HEK 293
T2 sequence (Q01776 1-327): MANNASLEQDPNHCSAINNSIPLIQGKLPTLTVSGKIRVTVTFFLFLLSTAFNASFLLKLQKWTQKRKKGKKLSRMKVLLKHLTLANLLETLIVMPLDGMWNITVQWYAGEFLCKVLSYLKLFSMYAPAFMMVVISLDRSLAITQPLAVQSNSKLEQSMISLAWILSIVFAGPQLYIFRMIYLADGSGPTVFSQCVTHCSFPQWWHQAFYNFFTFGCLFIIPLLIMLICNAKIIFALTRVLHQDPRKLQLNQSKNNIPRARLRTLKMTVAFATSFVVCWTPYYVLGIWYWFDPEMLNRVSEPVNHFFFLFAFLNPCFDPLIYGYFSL
The settings on record: Mouse GnRH receptor; competition with 125I-GnRH-A; Ki calculated from IC50 (Cheng et al.). A digest of the protocol:
as §1

Another experiment addresses T3, rat GnRH receptor (Rattus norvegicus, UniProt P30969).
T3 construct: rat pituitaries (Pel Freez Biologicals, Rogers, Ark.) are homogenized in buffer A; tissue Pel Freez Biologicals; host or cells: rat pituitaries
T3 sequence (P30969 1-327): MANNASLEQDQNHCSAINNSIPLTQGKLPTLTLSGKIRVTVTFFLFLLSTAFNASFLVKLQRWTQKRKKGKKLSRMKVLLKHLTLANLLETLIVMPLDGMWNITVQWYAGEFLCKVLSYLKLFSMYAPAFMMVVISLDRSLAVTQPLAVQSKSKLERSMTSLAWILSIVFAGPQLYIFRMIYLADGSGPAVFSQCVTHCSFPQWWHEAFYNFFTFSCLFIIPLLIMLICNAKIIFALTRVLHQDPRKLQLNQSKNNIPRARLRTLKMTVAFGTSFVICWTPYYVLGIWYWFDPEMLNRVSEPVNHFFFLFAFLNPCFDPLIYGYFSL
The settings on record: competition with 125I-GnRH-A, Ki calculated from IC50 (Cheng et al.). In short, it runs like this:
as §1

pKi: −log10 of the molar value.

Take `COc1cc2c(cc1Cc1ccc(C(=O)NNc3cc(C)c4c(C)nn(C)c4n3)o1)C(C)(C)CCC2(C)C` [Example C2, 5-[(3-Methoxy-5,5,8,8-tetramethyl-5,6,7,8-tetrahydro-2-naphthalenyl)methyl]-N′-(1,3,4-trimethyl-1H-pyrazolo[3,4-b]pyridin-6-yl)-2-furohydrazide]: the pKi (usually the negative decadic logarithm of the Ki, by convention in mol/L) on human GnRH receptors is 8.02; at mouse GnRH receptors, 7.64; at rat GnRH receptor, 7.49.

Consider `Cc1cc2c(cc1Cc1ccc(C(=O)NNc3cc(C)c4c(C)nn(C)c4n3)o1)C(C)(C)CCC2(C)C` [Example C1, 5-[(3,5,5,8,8-Pentamethyl-5,6,7,8-tetrahydro-2-naphthalenyl)methyl]-N′-(1,3,4-trimethyl-1H-pyrazolo[3,4-b]pyridin-6yl)-2-furohydrazide], for which the negative logarithm of the Ki (pKi) was 8.52 at human GnRH receptors, 8.15 on mouse GnRH receptors and 8.19 at rat GnRH receptor.
